Measured values: patent US12599672B2, “KRAS proteolysis targeting chimeras” (PAQ Therapeutics Inc., priority 2023, dated 2026)

What was measured:
Type in all cases: cell-based
[1] = biological target: T1, KRAS (Homo sapiens, UniProt P01116); test: KRASamp MSD assay; settings: KE39 (KRAS amplified) cells, treated with test compounds for 24 hr, MSD readout of KRAS degradation
T1 construct: endogenous in cells; host or cells: KE39 (KRAS amplified) cells
Outline: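 KRAS-amplified KE39 cells treated with compound for 24 hr, then lysed in RIPA buffer with protease/phosphatase inhibitors. KRAS protein measured by MSD sandwich immunoassay against a recombinant WT KRAS standard curve; DC50 derived from curve fitting of degradation.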

[2] = biological target: T2, KRAS G12V (Homo sapiens, UniProt P01116, G12V); test: KRAS G12V HiBit assay; settings: SW620-KRAS (G12V)-HiBit-KI cells, compound treatment for 24 hours
T2 construct: SW620-KRAS (G12V)-HiBit-KI cell (Pharmaron); host or cells: SW620-KRAS (G12V)-HiBit-KI cells (HiBiT knock-in at the endogenous KRAS locus)
Outline: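 HiBiT-tagged KRAS G12V cells treated 24 h with compound in a 3-fold, 10-point series (0.3 mM DMSO stock); lytic HiBiT reagent with LgBiT added after 15 min room-temperature equilibration. Degradation calculated against 0.1% DMSO high control.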

[3] = biological target: T3, KRAS G12D (Homo sapiens, UniProt P01116, G12D); test: KRAS G12D HiBit assay; settings: AsPc-1-KRAS (G12D)-HiBit-KI cell, compound treatment for 24 hours; for DC50: absolute DC50
T3 construct: AsPc-1-KRAS (G12D)-HiBit-KI cell (Pharmaron); host or cells: AsPc-1-KRAS (G12D)-HiBit-KI cells (HiBiT knock-in at the endogenous KRAS locus)
Outline: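 Cells were treated for 24 h with compounds in a 3-fold, 10-point dilution series from a 0.3 mM DMSO stock, then equilibrated 15 min at room temperature. KRAS G12D HiBiT levels were read by luminescence after lytic Nano-Glo HiBiT reagent with LgBiT; inhibition calculated relative to 0.1% DMSO high control.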

T1 sequence (P01116 1-188 isoform P01116-2): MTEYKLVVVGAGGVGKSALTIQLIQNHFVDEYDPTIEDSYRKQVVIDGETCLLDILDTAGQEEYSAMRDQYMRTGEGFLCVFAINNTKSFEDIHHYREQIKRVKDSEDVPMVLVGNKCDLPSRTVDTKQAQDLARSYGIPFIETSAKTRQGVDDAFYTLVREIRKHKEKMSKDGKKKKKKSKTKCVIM
T3 sequence (P01116 1-188 isoform P01116-2 G12D): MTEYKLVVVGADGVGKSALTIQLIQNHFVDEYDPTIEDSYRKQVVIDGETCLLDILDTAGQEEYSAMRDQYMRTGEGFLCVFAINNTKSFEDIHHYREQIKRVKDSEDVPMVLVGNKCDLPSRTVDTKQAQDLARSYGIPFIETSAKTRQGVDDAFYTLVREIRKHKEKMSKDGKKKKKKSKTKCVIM
T2 sequence (P01116 1-188 isoform P01116-2 G12V): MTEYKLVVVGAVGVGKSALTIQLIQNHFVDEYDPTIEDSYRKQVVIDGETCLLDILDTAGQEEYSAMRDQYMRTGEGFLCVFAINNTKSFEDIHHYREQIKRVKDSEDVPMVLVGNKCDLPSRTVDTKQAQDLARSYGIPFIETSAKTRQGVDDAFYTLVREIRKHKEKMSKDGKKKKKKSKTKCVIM

| SMILES | DC50 [1] | DC50 ([2]; class symbols) | DC50 ([3]; class symbols) | Dmax ([3]; class symbols) | DC50 ([3]; numeric bounds given in place of class symbols) | DC50 ([2]; numeric bounds) |
| --- | --- | --- | --- | --- | --- | --- |
| CCc1c(F)ccc2cc(O)cc(-c3ncc4c(N5CCC[C@@](C)(O)C5)nc(OC[C@@]56CCCN5[C@H](COC(=O)N5CCCC5CN5CCC(c7ccc8c(c7)n(C)c(=O)n8C7CCC(=O)NC7=O)CC5)CC6)nc4c3F)c12 (stereo partly drawn) [Compound 434, ((3S,7aS)-7a-(((7-(8-ethyl-7-fluoro-3-hydroxynaphthalen-1-yl)-8-fluoro-4-((R)-3-hydroxy-3-methylpiperidin-1-yl)pyrido[4,3-d]pyrimidin-2-yl)oxy)methyl)hexahydro-1H-pyrrolizin-3-yl)methyl 2-((4-(1-(2,6-dioxopiperidin-3-yl)-3-methyl-2-oxo-2,3-dihydro-1H-benzo[d]imidazol-5-yl)piperidin-1-yl)methyl)pyrrolidine-1-carboxylate] | 1 to 10 nM | 10 to 100 nM | < 100 nM | – | – | – |
| CCc1c(F)ccc2cc(O)cc(-c3ncc4c(N5CCC[C@@](C)(O)C5)nc(OC[C@@]56CCCN5[C@@H](COC(=O)N5CCC(CN7CCC(c8cc9c(cc8F)n(C8CCC(=O)NC8=O)c(=O)n9C)CC7)CC5)CC6)nc4c3F)c12 (stereo partly drawn) [Compound 426, ((3R,7aS)-7a-(((7-(8-ethyl-7-fluoro-3-hydroxynaphthalen-1-yl)-8-fluoro-4-((R)-3-hydroxy-3-methylpiperidin-1-yl)pyrido[4,3-d]pyrimidin-2-yl)oxy)methyl)hexahydro-1H-pyrrolizin-3-yl)methyl 4-((4-(1-(2,6-dioxopiperidin-3-yl)-6-fluoro-3-methyl-2-oxo-2,3-dihydro-1H-benzo[d]imidazol-5-yl)piperidin-1-yl)methyl)piperidine-1-carboxylate] | < 1 nM | 10 to 100 nM | < 100 nM | – | – | – |
| CCc1c(F)ccc2cc(O)cc(-c3ncc4c(N5CCC[C@@](C)(O)C5)nc(OC[C@@]56CCCN5[C@H](COC(=O)N5CC7(CCN(CC8CCN(c9ccc%10c(c9)n(C)c(=O)n%10C9CCC(=O)NC9=O)CC8)CC7)C5)CC6)nc4c3F)c12 (stereo partly drawn) [Compound 452, ((3S,7aS)-7a-(((7-(8-ethyl-7-fluoro-3-hydroxynaphthalen-1-yl)-8-fluoro-4-((R)-3-hydroxy-3-methylpiperidin-1-yl)pyrido[4,3-d]pyrimidin-2-yl)oxy)methyl)hexahydro-1H-pyrrolizin-3-yl)methyl 7-((1-(1-(2,6-dioxopiperidin-3-yl)-3-methyl-2-oxo-2,3-dihydro-1H-benzo[d]imidazol-5-yl)piperidin-4-yl)methyl)-2,7-diazaspiro[3.5]nonane-2-carboxylate] | < 1 nM | < 10 nM | < 100 nM | – | – | – |
| C#Cc1c(F)ccc2cc(O)cc(-c3ncc4c(N5CCCCC5)nc(OCC5(CN6CCN(CC7CCN(c8ccc9c(c8)n(C)c(=O)n9C8CCC(=O)NC8=O)CC7)CC6)CC5)nc4c3F)c12 (stereo not shown) [Compound 15] | ≥ 10 nM | > 100 nM | 100 to 300 nM | > 50% | – | – |
| CCc1c(F)ccc2cc(O)cc(-c3ncc4c(N5CCC[C@@](C)(O)C5)nc(OC[C@@]56CCCN5[C@H](COC(=O)N5CCC7(CCC(N8CCC(c9ccc%10c(c9)n(C)c(=O)n%10C9CCC(=O)NC9=O)CC8)CC7)CC5)CC6)nc4c3F)c12 (stereo partly drawn) [Compound 465, ((3S,7aS)-7a-(((7-(8-ethyl-7-fluoro-3-hydroxynaphthalen-1-yl)-8-fluoro-4-((R)-3-hydroxy-3-methylpiperidin-1-yl)pyrido[4,3-d]pyrimidin-2-yl)oxy)methyl)hexahydro-1H-pyrrolizin-3-yl)methyl 9-(4-(1-(2,6-dioxopiperidin-3-yl)-3-methyl-2-oxo-2,3-dihydro-1H-benzo[d]imidazol-5-yl)piperidin-1-yl)-3-azaspiro[5.5]undecane-3-carboxylate] | < 1 nM | < 10 nM | < 100 nM | – | – | – |
| CCc1cccc2cc(O)cc(-c3ncc4c(N5CCC[C@@](C)(O)C5)nc(OC[C@@]56CCCN5[C@H](COC(=O)N5CCC(CN7CCC(c8ccc9c(c8)n(C)c(=O)n9C8CCC(=O)NC8=O)CC7)CC5)CC6)nc4c3F)c12 (stereo partly shown) [Compound 145] | 1 to 10 nM | < 10 nM | < 100 nM | – | – | – |
| CCc1c(F)ccc2cc(O)cc(-c3ncc4c(N5CCC[C@@](C)(O)C5)nc(OC[C@]56CCCN5[C@H](COC(=O)N5CCC(Oc7ccc8c(c7)n(C)c(=O)n8C7CCC(=O)NC7=O)CC5)CC6)nc4c3F)c12 (stereo partly drawn) [Compound 330, ((3S,7aR)-7a-(((7-(8-ethyl-7-fluoro-3-hydroxynaphthalen-1-yl)-8-fluoro-4-((R)-3-hydroxy-3-methylpiperidin-1-yl)pyrido[4,3-d]pyrimidin-2-yl)oxy)methyl)hexahydro-1H-pyrrolizin-3-yl)methyl 4-((1-(2,6-dioxopiperidin-3-yl)-3-methyl-2-oxo-2,3-dihydro-1H-benzo[d]imidazol-5-yl)oxy)piperidine-1-carboxylate] | 1 to 10 nM | > 100 nM | – | – | > 100 nM | – |
| CCc1c(F)ccc2cc(O)cc(-c3ncc4c(N5CC[C@@H](O)C5)nc(OC[C@@]56CCCN5[C@H](COC(=O)N5CCC7(CC5)CC(N5CCC(c8ccc9c(c8)n(C)c(=O)n9C8CCC(=O)NC8=O)CC5)C7)CC6)nc4c3F)c12 (stereo partly drawn) [Compound 350, ((3S,7aS)-7a-(((7-(8-ethyl-7-fluoro-3-hydroxynaphthalen-1-yl)-8-fluoro-4-((R)-3-hydroxypyrrolidin-1-yl)pyrido[4,3-d]pyrimidin-2-yl)oxy)methyl)hexahydro-1H-pyrrolizin-3-yl)methyl 2-(4-(1-(2,6-dioxopiperidin-3-yl)-3-methyl-2-oxo-2,3-dihydro-1H-benzo[d]imidazol-5-yl)piperidin-1-yl)-7-azaspiro[3.5]nonane-7-carboxylate] | 1 to 10 nM | < 10 nM | < 100 nM | – | – | – |
| CCc1c(F)ccc2cc(O)cc(-c3ncc4c(N5CCC[C@@H](N)C5)nc(OC[C@@]56CCCN5[C@H](COC(=O)N5CCC7(CC5)CC(N5CCC(c8ccc9c(c8)n(C)c(=O)n9C8CCC(=O)NC8=O)CC5)C7)CC6)nc4c3F)c12 (stereo partly drawn) [Compound 476, ((3S,7aS)-7a-(((4-((R)-3-aminopiperidin-1-yl)-7-(8-ethyl-7-fluoro-3-hydroxynaphthalen-1-yl)-8-fluoropyrido[4,3-d]pyrimidin-2-yl)oxy)methyl)hexahydro-1H-pyrrolizin-3-yl)methyl 2-(4-(1-(2,6-dioxopiperidin-3-yl)-3-methyl-2-oxo-2,3-dihydro-1H-benzo[d]imidazol-5-yl)piperidin-1-yl)-7-azaspiro[3.5]nonane-7-carboxylate] | 1 to 10 nM | < 10 nM | < 100 nM | – | – | – |
| C#Cc1c(F)ccc2cccc(-c3ncc4c(N5CCC[C@@](C)(O)C5)nc(OC[C@@]56CCCN5[C@H](COC(=O)N5CCC(CN7CCC(c8cccc9c8n(C)c(=O)n9C8CCC(=O)NC8=O)CC7)CC5)CC6)nc4c3F)c12 (stereo partly shown) [Compound 137] | 1 to 10 nM | – | 100 to 300 nM | – | – | > 75.7 nM |
| CCc1c(F)ccc2cc(O)cc(-c3ncc4c(N5CCC[C@@](C)(O)C5)nc(OC[C@@]56CCCN5[C@H](CNC(=O)c5ccc(CN7CCC(c8ccc9c(c8)n(C)c(=O)n9C8CCC(=O)NC8=O)CC7)cc5)CC6)nc4c3F)c12 (stereo partly drawn) [Compound 484, 4-((4-(1-(2,6-dioxopiperidin-3-yl)-3-methyl-2-oxo-2,3-dihydro-1H-benzo[d]imidazol-5-yl)piperidin-1-yl)methyl)-N-(((3S,7aS)-7a-(((7-(8-ethyl-7-fluoro-3-hydroxynaphthalen-1-yl)-8-fluoro-4-((R)-3-hydroxy-3-methylpiperidin-1-yl)pyrido[4,3-d]pyrimidin-2-yl)oxy)methyl)hexahydro-1H-pyrrolizin-3-yl)methyl)benzamide] | ≥ 10 nM | 10 to 100 nM | < 100 nM | – | – | – |
